Results as given in patent US10683290B2, “Tricyclic compounds as anticancer agents” (BRISTOL-MYERS SQUIBB COMPANY, priority 2015, dated 2020).

Molecular target: BRD4 (Homo sapiens, UniProt O60885)
Experiment: biochemical
Format: binding
Conditions: FRET BRD4 IC50 (nM), one of the FRET assays described

Question: With `Cc1nnn(C)c1-c1ccc2c3ncc(C(C)(C)O)cc3n([C@H](c3ccccc3F)C3CCOCC3)c2c1` [Example 9, 2-[7-(dimethyl-1H-1,2,3-triazol-5-yl)-5-[(S)-(2-fluorophenyl)(oxan-4-yl)methyl]-5H-pyrido[3,2-b]indol-3-yl]propan-2-ol] as the molecule, how does the IC50 read?
Answer: < 5 nM

Same assay, conditions: one of the FRET assays described; read-out: FRET BRD4 IC50

Question: With `Cc1nnn(C)c1-c1cc2c(cc1F)c1ncc(C(C)(C)O)cc1n2C(c1ccc(F)cn1)C1CCOCC1` (single isomer, unassigned) [Example 70, 2-[7-(dimethyl-1H-1,2,3-triazol-5-yl)-8-fluoro-5-[(5-fluoropyridin-2-yl)(oxan-4-yl)methyl]-5H-pyrido[3,2-b]indol-3-yl]propan-2-ol] as the molecule, how does the IC50 read?
Answer: < 5 nM

Question: How did the IC50 turn out when `[2H]C([2H])([2H])c1nnn(C)c1-c1ccc2c3ncc(C(C)(C)O)cc3n(C(c3ncccc3F)C3CCOCC3)c2c1` (single isomer, unassigned) [Example 71, 2-{5-[(3-Fluoropyridin-2-yl)(oxan-4-yl)methyl]-7-[4-(^2H3)methyl-1-methyl-1H-1,2,3-triazol-5-yl]-5H-pyrido[3,2-b]indol-3-yl}propan-2-ol] was run?
Answer: < 1 nM

Question: `[2H]C([2H])([2H])c1nnn(C)c1-c1ccc2c3ncc(C(C)(C)O)cc3n(C(c3ncccc3F)C3CCOCC3)c2c1` (single isomer, unassigned) [Example 72, 2-{5-[(3-Fluoropyridin-2-yl)(oxan-4-yl)methyl]-7-[4-(^2H3)methyl-1-methyl-1H-1,2,3-triazol-5-yl]-5H-pyrido[3,2-b]indol-3-yl}propan-2-ol] was tested. Which IC50 did it give?
Answer: < 1 nM

Question: `[2H]C([2H])([2H])c1nnn(C)c1-c1ccc2c3ncc(C(C)(C)O)cc3n(C(c3cc(C)on3)C3CCOCC3)c2c1` (single isomer, unassigned) [Example 73, 2-{5-[(5-methyl-1,2-oxazol-3-yl)(oxan-4-yl)methyl]-7-[4-(^2H3)methyl-1-methyl-1H-1,2,3-triazol-5-yl]-5H-pyrido[3,2-b]indol-3-yl}propan-2-ol] was tested. Which IC50 did it give?
Answer: < 5 nM

Question: How did the IC50 turn out when `[2H]C([2H])([2H])c1nnn(C)c1-c1ccc2c3ncc(C(C)(C)O)cc3n(C(c3cc(C)on3)C3CCOCC3)c2c1` (single isomer, unassigned) [Example 74, 2-{5-[(5-methyl-1,2-oxazol-3-yl)(oxan-4-yl)methyl]-7-[4-(^2H3)methyl-1-methyl-1H-1,2,3-triazol-5-yl]-5H-pyrido[3,2-b]indol-3-yl}propan-2-ol] was run?
Answer: < 1500 nM

Question: `[2H]C([2H])([2H])c1nnn(C)c1-c1cc2c(cc1Cl)c1ncc(C(C)(C)O)cc1n2C(c1ncccc1F)C1CCOCC1` (single isomer, unassigned) [Example 75, 2-{8-Chloro-5-[(3-fluoropyridin-2-yl)(oxan-4-yl)methyl]-7-[4-(^2H3)methyl-1-methyl-1H-1,2,3-triazol-5-yl]-5H-pyrido[3,2-b]indol-3-yl}propan-2-ol] was tested. Which IC50 did it give?
Answer: < 1500 nM

Question: `[2H]C([2H])([2H])c1nnn(C)c1-c1cc2c(cc1Cl)c1ncc(C(C)(C)O)cc1n2C(c1ncccc1F)C1CCOCC1` (single isomer, unassigned) [Example 76, 2-{8-Chloro-5-[(3-fluoropyridin-2-yl)(oxan-4-yl)methyl]-7-[4-(^2H3)methyl-1-methyl-1H-1,2,3-triazol-5-yl]-5H-pyrido[3,2-b]indol-3-yl}propan-2-ol] was tested. Which IC50 did it give?
Answer: < 1500 nM

Question: With `[2H]C([2H])([2H])c1nnn(C)c1-c1cc2c(cc1Cl)c1ncc(C(C)(C)O)cc1n2C(c1cc(C)on1)C1CCOCC1` (single isomer, unassigned) [Example 78, 2-{8-chloro-5-[(5-methyl-1,2-oxazol-3-yl)(oxan-4-yl)methyl]-7-[4-(^2H3)methyl-1-methyl-1H-1,2,3-triazol-5-yl]-5H-pyrido[3,2-b]indol-3-yl}propan-2-ol] as the molecule, how does the IC50 read?
Answer: < 1500 nM

Question: `[2H]C([2H])([2H])c1nnn(C)c1-c1cc2c(cc1Cl)c1ncc(C(C)(C)O)cc1n2C(c1cc(C)on1)C1CCOCC1` (single isomer, unassigned) [Example 79, 2-{8-chloro-5-[(5-methyl-1,2-oxazol-3-yl)(oxan-4-yl)methyl]-7-[4-(^2H3)methyl-1-methyl-1H-1,2,3-triazol-5-yl]-5H-pyrido[3,2-b]indol-3-yl}propan-2-ol] was tested. Which IC50 did it give?
Answer: < 1500 nM

Question: With `[2H]C([2H])([2H])c1nnn(C)c1-c1cc2c(cc1Cl)c1ncc(C(C)(C)O)cc1n2C(c1ccccn1)C1CCOCC1` (single isomer, unassigned) [Example 80, 2-{8-chloro-7-[4-(^2H3)methyl-1-methyl-1H-1,2,3-triazol-5-yl]-5-[oxan-4-yl(pyridin-2-yl)methyl]-5H-pyrido[3,2-b]indol-3-yl}propan-2-ol] as the molecule, how does the IC50 read?
Answer: < 1500 nM

Question: For `[2H]C([2H])([2H])c1nnn(C)c1-c1cc2c(cc1Cl)c1ncc(C(C)(C)O)cc1n2C(c1ccccn1)C1CCOCC1` (single isomer, unassigned) [Example 81, 2-{8-chloro-7-[4-(^2H3)methyl-1-methyl-1H-1,2,3-triazol-5-yl]-5-[oxan-4-yl(pyridin-2-yl)methyl]-5H-pyrido[3,2-b]indol-3-yl}propan-2-ol], which IC50 is on record?
Answer: < 1500 nM

Question: `[2H]C([2H])([2H])c1nnn(C)c1-c1cc2c(cc1Cl)c1ncc(C(C)(C)O)cc1n2C(CCC)c1ncccc1F` (single isomer, unassigned) [Example 82, 2-{8-chloro-5-[1-(3-fluoropyridin-2-yl)butyl]-7-[4-(^2H3)methyl-1-methyl-1H-1,2,3-triazol-5-yl]-5H-pyrido[3,2-b]indol-3-yl}propan-2-ol] was tested. Which IC50 did it give?
Answer: < 1500 nM

Question: How did the IC50 turn out when `[2H]C([2H])([2H])c1nnn(C)c1-c1cc2c(cc1Cl)c1ncc(C(C)(C)O)cc1n2C(CCC)c1ncccc1F` (single isomer, unassigned) [Example 83, 2-{8-chloro-5-[1-(3-fluoropyridin-2-yl)butyl]-7-[4-(^2H3)methyl-1-methyl-1H-1,2,3-triazol-5-yl]-5H-pyrido[3,2-b]indol-3-yl}propan-2-ol] was run?
Answer: < 5 nM

Question: `[2H]C([2H])([2H])c1nnn(C)c1-c1ccc2c3ncc(C(C)(C)O)cc3n(C(c3ncccc3F)C3CCOCC3)c2c1F` (single isomer, unassigned) [Example 84, 2-{6-Fluoro-5-[(3-fluoropyridin-2-yl)(oxan-4-yl)methyl]-7-[4-(^2H3)methyl-1-methyl-1H-1,2,3-triazol-5-yl]-5H-pyrido[3,2-b]indol-3-yl}propan-2-ol] was tested. Which IC50 did it give?
Answer: < 5 nM

Question: For `[2H]C([2H])([2H])c1nnn(C)c1-c1ccc2c3ncc(C(C)(C)O)cc3n(C(c3ncccc3F)C3CCOCC3)c2c1F` (single isomer, unassigned) [Example 85, 2-{6-Fluoro-5-[(3-fluoropyridin-2-yl)(oxan-4-yl)methyl]-7-[4-(^2H3)methyl-1-methyl-1H-1,2,3-triazol-5-yl]-5H-pyrido[3,2-b]indol-3-yl}propan-2-ol], which IC50 is on record?
Answer: < 5 nM

Question: Which IC50 does the source give for `Cc1ccc2c(n1)c1c(C(N)=O)cc(-c3c(C)noc3C)cc1n2Cc1ccccc1` [Example 1, 5-Benzyl-7-(dimethyl-1,2-oxazol-4-yl)-2-methyl-5H-pyrido[3,2-b]indole-9-carboxamide] here?
Answer: < 1500 nM

Question: Which IC50 does the source give for `Cc1ccc2c(n1)c1ccc(-c3c(C)noc3C)cc1n2Cc1ccccc1` [Example 2, 4-{5-Benzyl-2-methyl-5H-pyrido[3,2-b]indol-7-yl}-3,5-dimethyl-1,2-oxazole] here?
Answer: < 1500 nM

Question: For `Cc1nnn(C)c1-c1ccc2c3ncc(C(C)(C)O)cc3n([C@H](c3ccc(F)cc3)C3CCOCC3)c2c1` [Example 3, 2-[7-(Dimethyl-1H-1,2,3-triazol-5-yl)-5-[(S)-(4-fluorophenyl)(oxan-4-yl)methyl]-5H-pyrido[3,2-b]indol-3-yl]propan-2-ol], which IC50 is on record?
Answer: < 1 nM

Question: How did the IC50 turn out when `Cc1nnn(C)c1-c1ccc2c3ncc(C(C)(C)O)cc3n(C(CCC(F)(F)F)CCC(F)(F)F)c2c1` [Example 4, 2-[7-(dimethyl-1H-1,2,3-triazol-5-yl)-5-(1,1,1,7,7,7-hexafluoroheptan-4-yl)-5H-pyrido[3,2-b]indol-3-yl]propan-2-ol] was run?
Answer: < 5 nM

Question: Which IC50 does the source give for `CCCC(CCC)n1c2cc(-c3c(C)nnn3C)ccc2c2ncc(C(C)(C)O)cc21` [Example 5, 2-[7-(dimethyl-1H-1,2,3-triazol-5-yl)-5-(heptan-4-yl)-5H-pyrido[3,2-b]indol-3-yl]propan-2-ol] here?
Answer: < 5 nM

Question: Which IC50 does the source give for `Cc1nnn(C)c1-c1ccc2c3ncc(C(C)(C)O)cc3n([C@H](c3ccccc3)C3CCOCC3)c2c1` [Example 8, 2-[7-(dimethyl-1H-1,2,3-triazol-5-yl)-5-[(S)-oxan-4-yl(phenyl)methyl]-5H-pyrido[3,2-b]indol-3-yl]propan-2-ol] here?
Answer: < 1 nM

Question: Which IC50 does the source give for `Cc1nnn(C)c1-c1cc(F)c2c3ncc(C(C)(C)O)cc3n(C(CCC(F)(F)F)CCC(F)(F)F)c2c1` [Example 10, 2-[7-(Dimethyl-1H-1,2,3-triazol-5-yl)-9-fluoro-5-(1,1,1,7,7,7-hexafluoroheptan-4-yl)-5H-pyrido[3,2-b]indol-3-yl]propan-2-ol] here?
Answer: < 5 nM

Question: How did the IC50 turn out when `Cc1nnn(C)c1-c1cc(F)c2c3ncc(C(C)(C)O)cc3n([C@H](c3ccccc3)C3CCOCC3)c2c1` [Example 11, 2-[7-(Dimethyl-1H-1,2,3-triazol-5-yl)-9-fluoro-5-[(S)-oxan-4-yl(phenyl)methyl]-5H-pyrido[3,2-b]indol-3-yl]propan-2-ol] was run?
Answer: < 1 nM

Question: How did the IC50 turn out when `Cc1nnn(C)c1-c1cc(Cl)c2c3ncc(C(C)(C)O)cc3n(C(CCC(F)(F)F)CCC(F)(F)F)c2c1` [Example 12, 2-[9-Chloro-7-(dimethyl-1H-1,2,3-triazol-5-yl)-5-(1,1,1,7,7,7-hexafluoroheptan-4-yl)-5H-pyrido[3,2-b]indol-3-yl]propan-2-ol] was run?
Answer: < 5 nM

Question: For `Cc1nnn(C)c1-c1cc(Cl)c2c3ncc(C(C)(C)O)cc3n([C@H](c3ccccc3)C3CCOCC3)c2c1` [Example 13, 2-[9-Chloro-7-(dimethyl-1H-1,2,3-triazol-5-yl)-5-[(S)-oxan-4-yl(phenyl)methyl]-5H-pyrido[3,2-b]indol-3-yl]propan-2-ol], which IC50 is on record?
Answer: < 1 nM

Question: For `Cc1noc(C)c1-c1ccc2c3ncc(C(C)(C)O)cc3n([C@H](c3ccccc3)C3CCOCC3)c2c1` [Example 14, 2-[7-(Dimethyl-1,2-oxazol-4-yl)-5-[(S)-oxan-4-yl(phenyl)methyl]-5H-pyrido[3,2-b]indol-3-yl]propan-2-ol], which IC50 is on record?
Answer: < 5 nM

Question: How did the IC50 turn out when `Cc1noc(C)c1-c1ccc2c3ncc(C(C)(C)O)cc3n([C@H](c3ccccc3F)C3CCOCC3)c2c1` [Example 15, 2-[7-(Dimethyl-1,2-oxazol-4-yl)-5-[(S)-(2-fluorophenyl)(oxan-4-yl)methyl]-5H-pyrido[3,2-b]indol-3-yl]propan-2-ol] was run?
Answer: < 5 nM
